The IC50 is the point on the concentration scale where inhibition reaches its midpoint.

Molecules are shown by their SMILES.

The target in assay [1] is T1, FLT3 kinase (Homo sapiens, UniProt P36888).
T1 sequence (P36888 564-993): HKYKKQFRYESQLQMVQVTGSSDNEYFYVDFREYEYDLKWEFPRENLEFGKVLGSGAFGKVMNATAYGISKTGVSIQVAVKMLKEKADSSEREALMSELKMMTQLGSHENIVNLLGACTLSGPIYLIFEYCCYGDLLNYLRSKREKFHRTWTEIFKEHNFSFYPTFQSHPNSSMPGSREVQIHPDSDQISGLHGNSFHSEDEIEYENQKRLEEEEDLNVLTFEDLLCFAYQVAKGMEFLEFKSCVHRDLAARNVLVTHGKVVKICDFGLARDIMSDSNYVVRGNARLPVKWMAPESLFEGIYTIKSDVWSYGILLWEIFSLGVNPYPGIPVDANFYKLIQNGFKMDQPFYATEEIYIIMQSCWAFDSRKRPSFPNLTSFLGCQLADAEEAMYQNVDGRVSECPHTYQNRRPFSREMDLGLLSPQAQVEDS
Nature of the assay: Kinase inhibition, fluorescence microfluidic mobility shift assay (FLT3). The assay is classed as biochemical. The note with it: substrate peptide FAM-P2 3 μM, ATP 97 μM; one hour at 28° C.; assayed in duplicate.
Experimental: Based on the experimental method of fluorescence microfluidic mobility shift assay, the IC50 value of the compound for competitive binding of ATP to kinases IRAK4 and FLT3 was determined. The initial detection concentration of the compound was 10 μM, which was diluted to 0.38 nM with a 4-fold gradient and assayed in duplicate. In this case, commercially available staurosporine was the standard control for the assay.
Information on reagents and consumables is as follows: • IRAK4 kinase (Carna, Cat. No. 09-145, Lot. No. 14CBS-0020 H) • FLT3 kinase (Carna, Cat. No. 08-154, Lot. No. 07CBS-2350) • Substrate peptide FAM-P2 (GL Biochem, Cat. No. 112394, Lot. No. P131014-XP112394) • Substrate peptide FAM-P8 (GL Biochem, Cat. No. 112396, Lot. No. P170731-SY112396) • ATP (adenosine triphosphate, Sigma, Cat. No. A7699-1G, CAS No. 987-65-5) • DMSO (dimethyl sulfoxide, Sigma, Cat. No. D2650) • EDTA (ethylenediaminetetraacetic acid, Sigma, Cat. No. E5134, CAS No. 60-00-4) • Staurosporine (Selleckchem, Cat. No. 51421) • HEPES (4-(2-Hydroxyethyl)-1-piperazineethanesulfonic acid, Gibco, Cat. No. 15630-080) • Brij-35 solution (Polyoxyethylene lauryl ether, Sigma, Cat. No. B41840-100 mL) • DTT (dithiothreitol, Sigma, Cat. No. D0632-20G) • 0.2% Coating Reagent #3 (0.2% coating reagent, Perkin Elmer, Cat. No. 760050) • 96-well plate (Corning, Cat. No. 3365) • 384-well plate (Corning, Cat. No. 3573) Experimental operation method: • 1) FLT3 and IRAK4 kinases were dissolved in the kinase buffer (50 mM HEPES pH 7.5, 10 mM MgCl2, 2 mM DTT, and 0.01% Brij-35) at final concentrations of 0.9 nM, 30 nM, and 6 nM, respectively. • 2) The substrate peptide FAM-P2 and the substrate peptide FAM-P8, together with ATP, were dissolved in the above kinase buffer, respectively, where the final concentrations of the substrate peptide FAM-P2 and ATP for the determination of FLT3 were 3 μM and 97 μM, respectively; and the final concentrations of the substrate peptide FAM-P8 and ATP for the determination of IRAK4 were 3 μM and 10 μM, respectively. • 3) Compound dilution: The compound was first diluted to 50 μM, and then diluted downward with DMSO in a 4-fold gradient. In this case, the solution without compound and kinase served as the blank control, corresponding to the “minimum value” shown below; the solution without compound but containing kinase, adenosine triphosphate, DMSO, and the buffer served as the positive control, corresponding to the “maximum value” shown below. • 4) Kinase reaction and termination: 10 μL of the kinase buffer was added to a 384-well plate containing 5 μL of the compound to be tested, and the mixture was incubated for 10 minutes at room temperature; another 10 μL, of buffer containing the substrate peptide and adenosine triphosphate was added to the 384-well plate, and after incubation for one hour at 28° C., 25 μL, of termination solution (100 mM HEPES pH 7.5, 50 mM EDTA, 0.2% Coating Reagent #3, and 0.015% Brij-35) was added to each well for reaction termination. • 5) Data reading: CaliperEZ Reader II instrument was used to read the conversion rate data. Setting conditions: downstream voltage as −500 V, upstream voltage as −2250 V, base pressure as −0.5 PSI, and screening pressure as −1.2 PSI. • 6) Data calculation: the conversion rate data was copied from CaliperEZ Reader II, and the conversion rate was converted into inhibition rate data.

Assay [2] has as its target T2, IRAK4 kinase (Homo sapiens, UniProt Q9NWZ3).
T2 sequence (Q9NWZ3 1-460): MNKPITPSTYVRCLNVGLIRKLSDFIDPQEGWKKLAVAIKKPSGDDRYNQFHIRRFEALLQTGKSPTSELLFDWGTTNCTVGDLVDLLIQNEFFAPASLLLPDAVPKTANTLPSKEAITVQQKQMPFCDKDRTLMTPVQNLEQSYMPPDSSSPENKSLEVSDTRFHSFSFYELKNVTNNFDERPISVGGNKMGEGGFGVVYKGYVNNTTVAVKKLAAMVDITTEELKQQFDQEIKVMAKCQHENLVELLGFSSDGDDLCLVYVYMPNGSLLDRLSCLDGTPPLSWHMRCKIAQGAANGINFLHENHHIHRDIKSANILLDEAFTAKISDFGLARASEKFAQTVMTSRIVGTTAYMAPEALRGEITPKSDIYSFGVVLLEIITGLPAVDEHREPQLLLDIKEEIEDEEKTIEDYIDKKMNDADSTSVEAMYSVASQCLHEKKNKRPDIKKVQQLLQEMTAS
The assay is described as follows: Kinase inhibition, fluorescence microfluidic mobility shift assay (IRAK4). The assay is classed as biochemical. The note with it: substrate peptide FAM-P8 3 μM, ATP 10 μM; one hour at 28° C.; assayed in duplicate.

Assay [3] relates to MV4-11 cells. Nature of the assay: Cytotoxicity against MV4-11 cells (CellTiter-Glo). It counts as cell-based. The conditions noted are these: Homo sapiens, incubated for 72 hours, CellTiter-Glo chemiluminescence. As to the method:
Determination of the IC50 Value of the Compound's Cytotoxicity Against MV4-11 Cells
MV-4-11 cells were cultured with IMDM complete medium (IMDM+10% fetal bovine serum+1% Penicillin-Streptomycin, a mixture of penicillin-streptomycin). • 2. MV-4-11 cells in good condition were collected and washed twice with DPBS ([…] phosphate buffered saline solution). • 3. MV-4-11 cells were resuspended with IMDM complete medium, the cell density was adjusted to 1.11×10^6 cells/mL, and the MV-4-11 cells were added to 96-well plates at 90 μL per well. • 4. A compound solution with 10-fold concentration was prepared with IMDM complete medium, 10 μL of the compound solution with 10-fold concentration was added to the cells in the 96-well plate, mixed well, and then the 96-well plate was placed in a 5% CO2 incubator at 37° C. and incubated for 72 hours. • 5. After the incubation, the 96-well plate was taken out and equilibrated for 30 minutes at room temperature. Then 100 μL of CellTiter Glo reagent was added to each well and mixed on a horizontal shaker for 2 minutes. • 6. The 96-well plate was removed, equilibrated at room temperature for 10 minutes, and the chemiluminescence value was detected on a microplate reader.
Background: Cellular ATP, detected with luciferase, serves as a proxy for viable cell number.

Consider `Cc1cc(-c2nc(C(=O)Nc3cc4cn(CCC5CCNC5=O)nc4cc3C(C)(C)O)co2)ccn1` (stereo not shown) [II-1], for which the figures for the IC50 in assay [1], in assay [2] and in assay [3] were 0.34 nM, 11 nM and 19.4 nM, respectively.
For the compound `COc1cc2nn(CCC3CCNC3=O)cc2cc1NC(=O)c1coc(-c2ccnc(C)c2)n1` (stereo not shown) [II-2], the IC50 in assay [1] turned out to be 0.52 nM; in assay [2] it was 8.4 nM; in assay [3], 14.8 nM.
`COc1cn2nc(C3CCNCC3)cc2cc1NC(=O)c1coc(-c2ccnc(C)c2)n1` [II-3F]: the values for the IC50 in assay [1], in assay [2] and in assay [3] were 2.3 nM, 6 nM and 15 nM, respectively.
Regarding `COc1cc2nn(CCC3CCNC3=O)cc2cc1NC(=O)c1coc(Br)n1` (stereo not shown) [II-4], the IC50 came out at 12 nM in assay [1] and 72 nM in assay [2].
Take `COc1cc2nn(C3CCNCC3)cc2cc1NC(=O)c1nc(-c2ccnc(C)c2)c[nH]1` [II-5C]: the IC50 worked out at 0.19 nM in assay [1], 3.5 nM in assay [2] and 0.78 nM in assay [3].
As to `COc1cc2nn(C3CCNCC3)cc2cc1NC(=O)c1coc(N2CCN(C(C)=O)CC2)n1` [II-6], the IC50 in assay [2] was found to be 178 nM.
Take `COc1cc2nn(C3CCNCC3)cc2cc1NC(=O)c1coc(N2CCS(=O)(=O)CC2)n1` [II-7C]: the IC50 in assay [1] stood at 100 nM; in assay [2] it was 94 nM.
For `COc1cc2nn(CCC3CCNC3=O)cc2cc1NC(=O)c1coc(-c2ccnc(C(F)(F)F)c2)n1` (stereo not shown) [II-8], in that order: 9.5 nM and 25 nM.
As to `COc1cc2nn(C3CCNCC3)cc2cc1NC(=O)c1coc(-c2ccccc2)n1` [II-9C], the IC50 in assay [2] is 9.4 nM.
As for `COc1cc2nn(C3CCNCC3)cc2cc1NC(=O)c1coc(-c2ccncc2)n1` [II-10C], the values for the IC50 in assay [1], in assay [2] and in assay [3] were 2.9 nM, 25 nM and 4.3 nM, respectively.
`COc1cc2nn(C3CCNCC3)cc2cc1NC(=O)c1ccn(-c2ccnc(C)c2)n1` [II-11C]: the IC50 amounted to 0.75 nM in assay [1], 6.9 nM in assay [2] and 4.6 nM in assay [3].
The like results for `COc1cc2nn(CCS(C)(=N)=O)cc2cc1NC(=O)c1coc(-c2ccnc(C)c2)n1` (stereo not shown) [II-12] were, in that order, 0.44 nM, 10 nM and 17.9 nM.
For `Cc1cc(-c2nc(C(=O)Nc3cc4cn(CCC5CCNC5=O)nc4cc3OC3COC3)co2)ccn1` (stereo not shown) [II-64], the IC50 in assay [2] came out at 4.5 nM; in assay [3], 1.3 nM.
For `CC(C)(O)CCn1cc2cc(NC(=O)c3ccn(-c4ccnc(C(F)(F)F)c4)n3)c(C(C)(C)O)cc2n1` [II-105], the results for the IC50 in assay [1] and in assay [2] were 39 nM and 2.63 nM, respectively.
With `Cc1cc(-c2nc(C(=O)Nc3cc4cn(CC5(F)CN(C(=O)OC(C)(C)C)C5)nc4cc3C(C)(C)O)co2)ccn1` [II-107], the IC50 in assay [1] turned out to be 0.73 nM; in assay [2], 9.22 nM.
For `Cc1cc(-c2nc(C(=O)Nc3cc4cn(CCN5CC6CC5CO6)nc4cc3C(C)(C)O)co2)ccn1` (stereo not shown) [II-110], in that order: 0.36 nM and 8.16 nM.
For `Cc1cc(-c2nc(C(=O)Nc3cc4cn(C5CC(C)(C)OC(C)(C)C5)nc4cc3C(C)(C)O)co2)ccn1` [II-116], the IC50 was 7.54 nM in assay [2] and 27.3 nM in assay [3].
Take `Cc1cc(-n2ccc(C(=O)Nc3cc4oc(N5CCOCC5)nc4nc3N3CCC(O)C3)n2)ccn1` (stereo not shown) [II-123]: the IC50 in assay [2] amounted to 122 nM.
As to `Cc1cc(-c2nc(C(=O)Nc3cc4oc(N5CC6CC5CO6)nc4nc3N3CCC(O)C3)co2)ccn1` (stereo not shown) [II-125], in assay [2], the IC50 was 82 nM.
Regarding `Cc1cc(-c2nc(C(=O)Nc3cc4oc(N5CCN(CC(F)(F)F)CC5)nc4nc3N3CCC(O)C3)co2)ccn1` (stereo not shown) [II-128], the results for the IC50 in assay [1] and in assay [2] were 13 nM and 44 nM, respectively.
For `Cc1cc(-c2nc(C(=O)Nc3cc4oc(N5CCC(C(F)(F)F)CC5)nc4nc3N3CCC(O)C3)co2)ccn1` (stereo not shown) [II-130], the IC50 in assay [1] was 8.9 nM; in assay [2], 26 nM.
Turning to `CC(C)(O)CCn1cc2cc(NC(=O)c3coc(-c4ccnc(C(F)(F)F)c4)n3)c(C(C)(C)O)nc2n1` [II-131], the IC50 in assay [2] came out at 20 nM.

These data come from patent publication US12195479B2, “Five- and six-membered compound, and preparation method therefor and pharmaceutical composition and use thereof” (HANGZHOU POLYMED BIOPHARMACEUTICALS, INC., priority 2021, dated 2025).
